US12122756B2, “Biflavone compound against I-type herpes simplex virus, and preparation method therefor and use thereof” (priority 2022, dated 2024)
Read-outs that look alike come from different tables or passages of the source. Marks after values point to notes of the source that are not given here.

What was measured:
Vero cells = experiment: Cytotoxic assay of tested drugs against Vero cells (CCK-8); type: cell-based, African green monkey; details: for highest non-toxic concentration: Vero cells, CCK-8
Procedure: 3. Cytotoxic assay of tested drugs against Vero cells: Vero cells were seed in a 96 well plate at 3×10^4 cells/well. The next day, after growing into a monolayer, the test drug was diluted to obtain 8-9 concentrations and added to each well. Meanwhile, a normal control group was established, with 4 replicate wells for each group. After 72 hours, the toxicity of the test drug to Vero cells was measured using CCK-8 assay, and the highest non-toxic concentration and half toxic concentration (TC50) of the drug on the cells were calculated.

HSV-I = experiment: Cytopathic effect (CPE) assay: inhibition of pathological changes of Vero cells induced by HSV-I (CCK-8); type: cell-based, Herpes simplex virus type I; details: for inhibitory effect on HSV-I induced cytopathic changes (in words): CPE method; for Inhibition rate (%) / OD value: n = 5
Procedure: (1) Determination of the inhibitory activities of the test drugs on pathological changes of Vero cells induced by HSV-I using the cytopathic effect (CPE) assay: Vero cells were seeded in a 96-well plate and grew into a monolayer the next day. 100TCID50 HSV-I was added to infect cells, and then the cell maintenance solution containing different concentrations of the test drug was replaced, and a cell control group was included. The cells were cultured in an incubator for 72 hours. Then, the inhibitory effect of the drug on virus-induced cytopathic changes was measured using the CCK-8 assay, and thus the 50% inhibiting concentration (IC50) of the drug was calculated.

[1] = Solubility (highest solubility used as starting concentration; water solubility)
[2] = 1st (highest) concentration (971, 1600, 2620, 390 μg·ml^−1 for Compounds 1-4), 72 h
[3] = 2nd concentration, 50% serial dilution from column-head concentration, 72 h
[4] = 3rd concentration, 50% serial dilution from column-head concentration, 72 h
[5] = 4th concentration, 50% serial dilution from column-head concentration, 72 h
[6] = 5th concentration, 50% serial dilution from column-head concentration, 72 h
[7] = 6th concentration, 50% serial dilution from column-head concentration, 72 h
[8] = 7th concentration, 50% serial dilution from column-head concentration, 72 h
[9] = 8th concentration, 50% serial dilution from column-head concentration, 72 h
[10] = 9th concentration, 50% serial dilution from column-head concentration, 72 h
[11] = Concentration 1 (3 concentrations, 50% dilution based on highest non-toxic concentration)

Row | Structure (SMILES) | growth inhibition rate (%) on Vero cells (Vero cells; [2]) | growth inhibition rate (%) on Vero cells (Vero cells; [3]) | growth inhibition rate (%) on Vero cells (Vero cells; [4]) | growth inhibition rate (%) on Vero cells (Vero cells; [5]) | growth inhibition rate (%) on Vero cells (Vero cells; [6]) | growth inhibition rate (%) on Vero cells (Vero cells; [7]) | growth inhibition rate (%) on Vero cells (Vero cells; [8]) | growth inhibition rate (%) on Vero cells (Vero cells; [9]) | growth inhibition rate (%) on Vero cells (Vero cells; [10]) | TC50 on Vero cells (Vero cells; 72 h, CCK-8, Probit regression) | highest non-toxic concentration (Vero cells; 72 h) | inhibitory effect on HSV-I induced cytopathic changes (in words) (HSV-I) | Inhibition rate (%) (HSV-I; [11]) | OD value (HSV-I; [11]) | Inhibition rate (%) (HSV-I; Concentration 2) | OD value (HSV-I; Concentration 2) | Inhibition rate (%) (HSV-I; Concentration 3) | OD value (HSV-I; Concentration 3) | solubility [1] | TC50 on Vero cells (Vero cells)
1 | CCOc1ccc(-c2coc3c(Cc4c(OCC)c(OC)c(O)c5c(=O)c(-c6ccc(OCC)c(S(=O)(=O)[O-])c6)coc45)c(OCC)c(OC)c(O)c3c2=O)cc1S(=O)(=O)[O-].[Na+].[Na+] [Compound 4, sodium 8,8″-methylene-di-(4,7′-diethyltectorigenin-5′-sulphonate)] | 28.40** % | 27.54** % | 26.53** % | 23.48** % | 22.02** % | 18.43** % | 14.94** % | 9.42% | −23.23% | 11308.7 µg/mL | 0.864 µg/mL | no significant inhibitory effect | 5.96% | 0.32 ± 0.02 | 6.09% | 0.32 ± 0.01 | 5.99% | 0.32 ± 0.01 | 390 µg/mL | 
2 | COc1c(O)cc2occ(-c3ccc(O)c(S(=O)(=O)[O-])c3)c(=O)c2c1O.[Na+] [Compound 1, sodium tectorigenin-5′-sulphonate] | 57.86** % | 49.99** % | 42.06** % | 39.97** % | 34.95** % | 28.48** % | 27.14** % | 25.37** % | −1.57% |  |  | the effect was not significant | 4.41% | 0.37 ± 0.04 | 3.29% | 0.37 ± 0.02 | 2.26% | 0.36 ± 0.03 |  | 390.312 µg/mL
3 | CCOc1ccc(-c2coc3cc(OCC)c(OC)c(O)c3c2=O)cc1S(=O)(=O)[O-].[Na+] [Compound 3, sodium 4,7′-diethyltectorigenin-5′-sulphonate] | 45.06** % | 40.80** % | 36.94** % | 34.23** % | 32.36** % | 27.12** % | 25.55** % | 22.06** % | −0.24% | 3020.44 µg/mL | 3.496 µg/mL | no significant inhibitory effect | 6.20% | 0.38 ± 0.05 | 8.65% | 0.39 ± 0.10 | 4.09% | 0.37 ± 0.03 | 2620 µg/mL | 
